How the values were obtained:
Type in all cases: biochemical
Pim3 kinase = Pim3 kinase (Homo sapiens, UniProt Q86V86); assay: Pim3 ATP depletion assay; conditions: read-out: IC50 (μM) PIM3
Pim2 kinase = Pim2 kinase (Homo sapiens, UniProt Q9P1W9); assay: Pim2 ATP depletion assay; conditions: read-out: IC50 (μM) PIM2;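 note: Luciferase-based luminescent readout of ATP remaining after PIM2 phosphorylates a BAD peptide, final 5 nM enzyme, 4 µM ATP, 10 µM peptide, 2.5% DMSO, run to roughly half ATP consumption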
Pim1 kinase = Pim1 kinase (Homo sapiens, UniProt P11309); assay: Pim1 ATP depletion assay; conditions: Pim1 ATP depletion assay; read-out: IC50 (μM) PIM1;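 note: Luciferase-luciferin luminescence readout of residual ATP after PIM1 transfers phosphate to a peptide substrate, 40 µM ATP added, reaction run to roughly half ATP consumption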

Measured: IC50

Pim1 kinase, sequence (P11309 whole entry): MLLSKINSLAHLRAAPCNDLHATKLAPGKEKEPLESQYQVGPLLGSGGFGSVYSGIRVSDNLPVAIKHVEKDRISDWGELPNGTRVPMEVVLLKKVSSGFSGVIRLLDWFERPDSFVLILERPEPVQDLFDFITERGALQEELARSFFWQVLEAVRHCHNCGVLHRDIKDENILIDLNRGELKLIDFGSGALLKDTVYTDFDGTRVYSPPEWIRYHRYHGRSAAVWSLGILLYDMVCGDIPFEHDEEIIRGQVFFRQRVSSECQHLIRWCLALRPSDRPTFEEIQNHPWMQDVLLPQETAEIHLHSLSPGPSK
Pim2 kinase, sequence (Q9P1W9 whole entry): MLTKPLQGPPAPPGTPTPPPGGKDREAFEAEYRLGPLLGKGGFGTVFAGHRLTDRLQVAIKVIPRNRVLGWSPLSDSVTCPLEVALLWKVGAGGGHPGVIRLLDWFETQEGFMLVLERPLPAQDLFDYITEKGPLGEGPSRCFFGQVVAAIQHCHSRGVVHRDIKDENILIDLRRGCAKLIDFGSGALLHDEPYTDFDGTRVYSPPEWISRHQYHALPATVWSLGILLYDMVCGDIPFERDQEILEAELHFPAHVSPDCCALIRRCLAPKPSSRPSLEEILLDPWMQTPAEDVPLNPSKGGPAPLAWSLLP

Nc1ccc(-c2cccs2)nc1C(=O)Nc1cnccc1N1CCC[C@H](N)C1 [Example 475, 3-Amino-6-thiophen-2-yl-pyridine-2-carboxylic acid (3-amino-3,4,5,6-tetrahydro-2H-[1,4′]bipyridinyl-3′-yl)-amide]
< 1 µM: all assays above

Cc1ccc(-c2ccc(N)c(C(=O)Nc3cnccc3N3CCC[C@H](N)C3)n2)c(F)n1 [Example 476, 5-Amino-2′-fluoro-6′-methyl-[2,3′]bipyridinyl-6-carboxylic acid (3-amino-3,4,5,6-tetrahydro-2H-[1,4′]bipyridinyl-3′-yl)-amide]
< 1 µM: all assays above

COc1cc(F)c(-c2ccc(N)c(C(=O)Nc3cnccc3N3CCC[C@H](N)C3)n2)cc1F [Example 477, 3-Amino-6-(2,5-difluoro-4-methoxy-phenyl)-pyridine-2-carboxylic acid (3-amino-3,4,5,6-tetrahydro-2H-[1,4′]bipyridinyl-3′-yl)-amide]
< 1 µM: all assays above

Cc1cc(F)c(-c2ccc(N)c(C(=O)Nc3cnccc3N3CCC[C@H](N)C3)n2)cc1Cl [Example 478, 3-Amino-6-(5-chloro-2-fluoro-4-methyl-phenyl)-pyridine-2-carboxylic acid (3-amino-3,4,5,6-tetrahydro-2H-[1,4′]bipyridinyl-3′-yl)-amide]
< 1 µM: all assays above

Nc1ccc(-c2cccc(Cl)c2F)nc1C(=O)Nc1cnccc1N1CCC[C@H](N)C1 [Example 479, 3-Amino-6-(3-chloro-2-fluoro-phenyl)-pyridine-2-carboxylic acid (3-amino-3,4,5,6-tetrahydro-2H-[1,4′]bipyridinyl-3′-yl)-amide]
< 1 µM: all assays above

Nc1ccc(-c2ccc(S(N)(=O)=O)cc2)nc1C(=O)Nc1cnccc1N1CCC[C@H](N)C1 [Example 480, 3-Amino-6-(4-sulfamoyl-phenyl)-pyridine-2-carboxylic acid (3-amino-3,4,5,6-tetrahydro-2H-[1,4′]bipyridinyl-3′-yl)-amide]
< 1 µM: all assays above

Nc1ccc(-c2cccc(S(N)(=O)=O)c2)nc1C(=O)Nc1cnccc1N1CCC[C@H](N)C1 [Example 481, 3-Amino-6-(3-sulfamoyl-phenyl)-pyridine-2-carboxylic acid (3-amino-3,4,5,6-tetrahydro-2H-[1,4′]bipyridinyl-3′-yl)-amide]
< 1 µM: all assays above

Nc1ncc(-c2ccc(N)c(C(=O)Nc3cnccc3N3CCC[C@H](N)C3)n2)c(C(F)(F)F)n1 [Example 486, 3-Amino-6-(2-amino-4-trifluoromethyl-pyrimidin-5-yl)-pyridine-2-carboxylic acid (3-amino-3,4,5,6-tetrahydro-2H-[1,4′]bipyridinyl-3′-yl)-amide]
< 1 µM: all assays above

CC(C)Oc1ccc(F)c(-c2ccc(N)c(C(=O)Nc3cnccc3N3CCC[C@H](N)C3)n2)c1F [Example 488, 3-Amino-6-(2,6-difIuoro-3-isopropoxy-phenyl)-pyridine-2-carboxylic acid (3-amino-3,4,5,6-tetrahydro-2H-[1,4′]bipyridinyl-3′-yl)-amide]
< 1 µM: all assays above

Cc1cscc1-c1ccc(N)c(C(=O)Nc2cnccc2N2CCC[C@H](N)C2)n1 [Example 489, 3-Amino-6-(4-methyl-thiophen-3-yl)-pyridine-2-carboxylic acid (3-amino-3,4,5,6-tetrahydro-2H-[1,4′]bipyridinyl-3′-yl)-amide]
< 1 µM: all assays above

N#Cc1ccsc1-c1ccc(N)c(C(=O)Nc2cnccc2N2CCC[C@H](N)C2)n1 [Example 490, 3-Amino-6-(3-cyano-thiophen-2-yl)-pyridine-2-carboxylic acid (3-amino-3,4,5,6-tetrahydro-2H-[1,4′]bipyridinyl-3′-yl)-amide]
< 1 µM: all assays above

CCOc1ccc(F)c(-c2ccc(N)c(C(=O)Nc3cnccc3N3CCC[C@H](N)C3)n2)c1F [Example 492, 3-Amino-6-(3-ethoxy-2,6-difluoro-phenyl)-pyridine-2-carboxylic acid (3-amino-3,4,5,6-tetrahydro-2H-[1,4′]bipyridinyl-3′-yl)-amide]
< 1 µM: all assays above

COc1ccc(F)c(-c2ccc(N)c(C(=O)Nc3cnccc3N3CCC[C@H](N)C3)n2)c1F [Example 493, 3-Amino-6-(2,6-difluoro-3-methoxy-phenyl)-pyridine-2-carboxylic acid (3-amino-3,4,5,6-tetrahydro-2H-[1,4′]bipyridinyl-3′-yl)-amide]
< 1 µM: all assays above

CCOc1ccc(F)c(-c2nc(C(=O)Nc3cnccc3N3CCC[C@H](N)C3)c(N)cc2F)c1F [Example 495, 3-Amino-6-(3-ethoxy-2,6-difluoro-phenyl)-5-fluoro-pyridine-2-carboxylic acid (3-amino-3,4,5,6-tetrahydro-2H-[1,4′]bipyridinyl-3′-yl)-amide]
< 1 µM: all assays above

Nc1cc(F)c(-c2cccc(S(N)(=O)=O)c2)nc1C(=O)Nc1cnccc1N1CCC[C@H](N)C1 [Example 497, 3-Amino-5-fluoro-6-(3-sulfamoyl-phenyl)-pyridine-2-carboxylic acid (3-amino-3,4,5,6-tetrahydro-2H-[1,4′]bipyridinyl-3′-yl)-amide]
< 1 µM: all assays above

CS(=O)(=O)Nc1cccc(-c2nc(C(=O)Nc3cnccc3N3CCC[C@H](N)C3)c(N)cc2F)c1 [Example 498, 3-Amino-5-fluoro-6-(3-methanesulfonylamino-phenyl)-pyridine-2-carboxylic acid (3-amino-3,4,5,6-tetrahydro-2H-[1,4′]bipyridinyl-3′-yl)-amide]
< 1 µM: all assays above

Nc1cc(F)c(-c2ccccc2)nc1C(=O)Nc1cnccc1N1CCC[C@H](N)C1 [Example 499, 3-Amino-5-fluoro-6-phenyl-pyridine-2-carboxylic acid (3-amino-3,4,5,6-tetrahydro-2H-[1,4′]bipyridinyl-3′-yl)-amide]
< 1 µM: all assays above

CC(=O)Nc1cccc(-c2nc(C(=O)Nc3cnccc3N3CCC[C@H](N)C3)c(N)cc2F)c1 [Example 500, 6-(3-Acetylamino-phenyl)-3-amino-5-fluoro-pyridine-2-carboxylic acid (3-amino-3,4,5,6-tetrahydro-2H-[1,4′]bipyridinyl-3′-yl)-amide]
< 1 µM: all assays above

COc1ccc(F)cc1-c1nc(C(=O)Nc2cnccc2N2CCC[C@H](N)C2)c(N)cc1F [Example 501, 3-Amino-5-fluoro-6-(5-fluoro-2-methoxy-phenyl)-pyridine-2-carboxylic acid (3-amino-3,4,5,6-tetrahydro-2H-[1,4′]bipyridinyl-3′-yl)-amide]
< 1 µM: all assays above

COc1ccc(F)c(-c2nc(C(=O)Nc3cnccc3N3CCC[C@H](N)C3)c(N)cc2F)c1 [Example 502, 3-Amino-5-fluoro-6-(2-fluoro-5-methoxy-phenyl)-pyridine-2-carboxylic acid (3-amino-3,4,5,6-tetrahydro-2H-[1,4′]bipyridinyl-3′-yl)-amide]
< 1 µM: all assays above

CC(C)NC(=O)c1ccc(F)c(-c2ccc(N)c(C(=O)Nc3cnccc3N3CCC[C@H](N)C3)n2)c1F [Example 503, 3-Amino-6-(2,6-difluoro-3-isopropylcarbamoyl-phenyl)-pyridine-2-carboxylic acid (3-amino-3,4,5,6-tetrahydro-2H-[1,4′]bipyridinyl-3′-yl)-amide]
< 1 µM: all assays above

COC(=O)c1nc(-c2ccc(N)c(C(=O)Nc3cnccc3N3CCC[C@H](N)C3)n2)c(F)cc1N [Example 504, 5,5′-Diamino-6′-(3-amino-3,4,5,6-tetrahydro-2H-[1,4′]bi-pyridinyl-3′-ylcarbamoyl)-3-fluoro-[2,2′]bipyridinyl-6-carboxylic acid methyl ester]
< 1 µM: all assays above

CCCCOc1ccc(F)c(-c2nc(C(=O)Nc3cnccc3N3CCC[C@H](N)C3)c(N)cc2F)c1F [Example 506, 3-Amino-6-(3-butoxy-2,6-difluoro-phenyl)-5-fluoro-pyridine-2-carboxylic acid (3-amino-3,4,5,6-tetrahydro-2H-[1,4′]bipyridinyl-3′-yl)-amide]
< 1 µM: all assays above

COc1cncc(-c2nc(C(=O)Nc3cnccc3N3CCC[C@H](N)C3)c(N)cc2F)n1 [Example 507, 3-Amino-5-fluoro-6-(6-methoxy-pyrazin-2-yl)-pyridine-2-carboxylic acid (3-amino-3,4,5,6-tetrahydro-2H-[1,4′]bipyridinyl-3′-yl)-amide]
< 1 µM: all assays above

CC(C)NC(=O)c1ccc(F)c(-c2nc(C(=O)Nc3cnccc3N3CCC[C@H](N)C3)c(N)cc2F)c1 [Example 508, 3-Amino-5-fluoro-6-(2-fluoro-5-isopropylcarbamoyl-phenyl)-pyridine-2-carboxylic acid (3-amino-3,4,5,6-tetrahydro-2H-[1,4′]bipyridinyl-3′-yl)-amide]
< 1 µM: all assays above

Cc1cccc(C)c1-c1nc(C(=O)Nc2cnccc2N2CCC[C@H](N)C2)c(N)cc1F [Example 509, 3-Amino-6-(2,6-dimethyl-phenyl)-5-fluoro-pyridine-2-carboxylic acid (3-amino-3,4,5,6-tetrahydro-2H-[1,4′]bipyridinyl-3′-yl)-amide]
< 1 µM: all assays above

— US20140249135A1, “PIM KINASE INHIBITORS AND METHODS OF THEIR USE” (NOVARTIS AG, priority 2007, published 2014)
